Residue numbers refer to the chain shown, from its start.
Experiments:
Assay type in all cases: biochemical
ALDH2*1/*1 = target: T1, ALDH2*1/*1 (Homo sapiens, UniProt P05091); test: ALDH2 enzymatic activity, NADH accumulation at 340 nm, acetaldehyde substrate, wild type; conditions: relative to baseline enzymatic activity (100%); for activity at 2.5 µM: 2.5 μM compound; for activity at 5 µM: 5 μM compound; for activity at 10 µM: 10 μM compound; for activity at 20 µM: 20 μM compound
T1 construct: His-tag (N); made in house; host or cells: E. coli BL21 (pTrcHis vector)
T1 sequence (P05091 18-517): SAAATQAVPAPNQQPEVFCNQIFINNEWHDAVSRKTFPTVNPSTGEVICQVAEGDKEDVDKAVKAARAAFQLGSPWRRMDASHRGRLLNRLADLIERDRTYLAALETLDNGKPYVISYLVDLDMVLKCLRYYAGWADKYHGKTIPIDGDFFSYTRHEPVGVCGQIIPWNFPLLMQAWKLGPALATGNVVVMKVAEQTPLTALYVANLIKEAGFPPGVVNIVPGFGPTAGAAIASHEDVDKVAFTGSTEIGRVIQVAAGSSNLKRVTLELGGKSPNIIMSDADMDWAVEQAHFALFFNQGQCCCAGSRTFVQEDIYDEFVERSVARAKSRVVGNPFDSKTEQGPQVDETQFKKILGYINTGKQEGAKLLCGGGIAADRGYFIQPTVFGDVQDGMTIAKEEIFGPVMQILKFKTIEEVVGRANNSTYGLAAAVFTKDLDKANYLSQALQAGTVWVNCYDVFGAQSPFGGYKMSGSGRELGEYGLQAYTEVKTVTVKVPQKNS
Procedure: (§1) ALDH2 catalyzes the oxidative reaction of substrate acetaldehyde to acetic acid using NAD^+ as a cofactor. Enzymatic activity, or catalytic rate, of aldehyde dehydrogenase (ALDH2) are measured spectrophotometrically at UV wavelength λ340 nm by the accumulation of reduced product NADH derived from NAD^+. Absorbance at λ340 nm is quantitatively proportional to the amount of NADH being produced over time (6.22 O.D. unit=1 mmol of NADH, measured in a 1-cm width standard cuvette). This method is well-established in the literature [e.g. Rex et al., Alcohol Clin. Exp. Res. 9, 147 (1985)].
as §1, with “can be” for “are”
(§2) Cloning, expression and purification of human ALDH2 wild type and ALDH2*2 recombinant mutant enzymes: Full-length wild type human ALDH2 cDNA was purchased from ATCC (No. MGC-1806. GenBank ID: BC002967). The 18-amino acid mitochondria transport signal sequence was removed by PCR and cloned into the NheI/HindIII sites of a His-tag vector, pTrcHis, using standard molecular cloning techniques. The human ALDH2* cDNA construct containing the Asian E487K mutation was obtained by site-directed mutagenesis to create the E487K substitution of the wild type ALDH2. Both human clones were designed to express a recombinant protein with the His-tag at the N-terminus of the protein. For the co-expression experiments of human ALDH2 wild type and ALDH2*2 heterotetramers, a wild type ALDH2 gene and a ALDH2 E487K gene were inserted separately into the two multiple cloning sites of pETDuet-1 vector. (Novagen, CA, USA). All the vectors were transformed into BL21 E. coli host cells and subjected to 0.5 mM IPTG induction for protein expression at 30° C. Purifications of the recombinant proteins by affinity nickel columns (HisTrap, GE Healthy Science, USA) were carried out using standard protocols according to manufacturer's instructions (Novagen, USA).
(§3) ALDH2 catalyzes the oxidative reaction of substrate acetaldehyde to acetic acid using NAD^+ as a cofactor. Enzymatic activity, or catalytic rate, of aldehyde dehydrogenase (ALDH2) can be measured spectrophotometrically at UV wavelength λ340 nm by the accumulation of reduced product NADH derived from NAD^+. Because compounds of formula (I) are considered to be agonists or “activators” of ALDH2 the enzymatic activity measured will exceed 100% of the baseline enzymatic activity of the enzyme in its normal activation state. As the concentration of the compounds of formula (I) decreases from 20 micromolar to 0.16 micromolar in the presence of ALDH, a decrease in the activation of enzymatic activity is observed for the wild-type ALDH2*1/*1 and the heterozygous form ALDH2*1/*2.

ALDH2*1/*2 = target: T2, ALDH2*1/*2 (Homo sapiens, UniProt P05091, E504K); test: ALDH2 enzymatic activity, NADH accumulation at 340 nm, acetaldehyde substrate, heterozygous form; conditions: relative to baseline enzymatic activity (100%); for activity at 2.5 µM: 2.5 μM compound; for activity at 5 µM: 5 μM compound; for activity at 10 µM: 10 μM compound; for activity at 20 µM: 20 μM compound
T2 construct: His-tag; made in house; host or cells: E. coli BL21 (pETDuet-1 co-expression)
T2 sequence (P05091 18-517): T1 sequence (P05091 18-517)
T2 sequence (P05091 18-517 E504K): T1 sequence (P05091 18-517) with E487K
Procedure: as §1
as §1, with “can be” for “are”
as §2, §3

ALDH2 = target: T3, ALDH2 (Homo sapiens, UniProt P05091); test: ALDH2 activity with 20 μM of the compound (Table 3); conditions: 20 μM compound
T3 construct: His-tag (N); made in house; host or cells: E. coli BL21
T3 sequence (P05091 18-517): T1 sequence (P05091 18-517)
Procedure: as §1
as §1, with “can be” for “are”
as §3

activity at 2.5 µM (ALDH2*1/*1) [%]	activity at 5 µM (ALDH2*1/*1) [%]	activity at 10 µM (ALDH2*1/*1) [%]	activity at 20 µM (ALDH2*1/*1) [%]	activity at 2.5 µM (ALDH2*1/*2) [%]	activity at 5 µM (ALDH2*1/*2) [%]	activity at 10 µM (ALDH2*1/*2) [%]	activity at 20 µM (ALDH2*1/*2) [%]	activity at 20 µM (ALDH2) [%]	SMILES
124	106	143	169	105	129	160	203	150 to 250	COc1ccc(CNC(=O)c2cc(-c3c(CO)cccc3N(C)C)cnc2OCC2CC2)cc1F [AC15]
170	238	308	403	157	218	255	93	> 250	COc1ccc(CNC(=O)c2cc(-c3cc(F)ccc3CO)cnc2OCC2CC2)cc1F [AC20]
119	131	171	187	127	145	172	197	150 to 250	COc1ccc(CNC(=O)c2cc(-c3cccc(F)c3CO)cnc2OCC2CC2)cc1F [AC18]
132	143	214	236	133	163	191	230	> 250	COc1ccc(CNC(=O)c2cc(-c3c(F)cccc3CO)cnc2OCC2CC2)cc1F [AC19]
106	106	105	133	104	116	126	138	100 to 150	COc1ccc(CNC(=O)c2cc(-c3c(CO)cccc3N(C)C)ccc2OCC2CC2)cc1F [AC16]

The remaining lines, values behind:

SMILES	activity at 2.5 µM (ALDH2*1/*1) [%]	activity at 5 µM (ALDH2*1/*1) [%]	activity at 10 µM (ALDH2*1/*1) [%]	activity at 20 µM (ALDH2*1/*1) [%]	activity at 2.5 µM (ALDH2*1/*2) [%]	activity at 5 µM (ALDH2*1/*2) [%]	activity at 10 µM (ALDH2*1/*2) [%]	activity at 20 µM (ALDH2*1/*2) [%]	activity at 20 µM (ALDH2) [%]
COc1ccc(CNC(=O)c2cc(-c3ccncc3CO)ccc2OCC2CC2)cc1F [AC9]	218	276	354	376	224	287	317	402	> 250
COc1ccc(CNC(=O)c2cc(-c3ccsc3CO)ccc2OCC2CC2)cc1F [AC27]	293	315	379	364	323	420	419	410	> 250
COc1ccc(CNC(=O)c2cc(-c3sccc3CO)ccc2OCC2CC2)cc1F [AC28]	197	252	366	430	201	239	338	456	> 250
COc1ccc(CNC(=O)c2cc(-c3ccsc3CO)cnc2OCC2CC2)cc1F [AC25, 2-(cyclopropylmethoxy)-N-(3-fluoro-4-methoxybenzyl)-5-(2-(hydroxymethyl)thiophen-3-yl)nicotinamide]	273	341	422	382	267	321	343	260	> 250
COc1ccc(CNC(=O)c2cc(-c3sccc3CO)cnc2OCC2CC2)cc1F [AC26, 2-(cyclopropylmethoxy)-N-(3-fluoro-4-methoxybenzyl)-5-(3-(hydroxymethyl)thiophen-2-yl)nicotinamide]	199	235	352	394	188	238	261	281	> 250
COc1ccc(CNC(=O)c2cc(-c3cc(F)ccc3CO)ccc2OCC2CC2)cc1F [AC17]	229	262	340	318	156	173	176	195	> 250
COc1ccc(CNC(=O)c2cc(-c3cccnc3CO)cnc2OCC2CC2)cc1F [AC11]	123	135	169	211	125	158	185	248	150 to 250
COc1ccc(CNC(=O)c2cc(-c3c(F)cccc3CO)ccc2OCC2CC2)cc1F [AC22]	172	263	313	437	160	194	253	143	> 250
COc1ccc(CNC(=O)c2cc(-c3cscc3CO)ccc2OCC2CC2)cc1F [AC29]	283	334	422	445	260	349	392	423	> 250
COc1ccc(CNC(=O)c2cc(-c3ccccc3CO)ccc2OCC2CC2)cc1F [AC2, 4-(cyclopropylmethoxy)-N-(3-fluoro-4-methoxybenzyl)-2′-(hydroxymethyl)-[1,1′-biphenyl]-3-carboxamide]	215	275	328	443	256	338	408	471	> 250

From patent US9879036B2, “Mitochondrial aldehyde dehydrogenase-2 binding compounds and methods of use thereof” (Aviv Therapeutics, Inc., priority 2014, dated 2018)
